Data from patent US8946223B2, “Substituted hydroxamic acids and uses thereof” (Millennium Pharmaceuticals, Inc., priority 2010, dated 2015).

molecular target: T1, purified human HDAC6 (Homo sapiens, UniProt Q9UBN7); test: HDAC6 enzyme assay; format: biochemical; details: bin: less than 100 nM
T1 construct: purchased BPS Bioscience 5006
T1 sequence (Q9UBN7 1-1215): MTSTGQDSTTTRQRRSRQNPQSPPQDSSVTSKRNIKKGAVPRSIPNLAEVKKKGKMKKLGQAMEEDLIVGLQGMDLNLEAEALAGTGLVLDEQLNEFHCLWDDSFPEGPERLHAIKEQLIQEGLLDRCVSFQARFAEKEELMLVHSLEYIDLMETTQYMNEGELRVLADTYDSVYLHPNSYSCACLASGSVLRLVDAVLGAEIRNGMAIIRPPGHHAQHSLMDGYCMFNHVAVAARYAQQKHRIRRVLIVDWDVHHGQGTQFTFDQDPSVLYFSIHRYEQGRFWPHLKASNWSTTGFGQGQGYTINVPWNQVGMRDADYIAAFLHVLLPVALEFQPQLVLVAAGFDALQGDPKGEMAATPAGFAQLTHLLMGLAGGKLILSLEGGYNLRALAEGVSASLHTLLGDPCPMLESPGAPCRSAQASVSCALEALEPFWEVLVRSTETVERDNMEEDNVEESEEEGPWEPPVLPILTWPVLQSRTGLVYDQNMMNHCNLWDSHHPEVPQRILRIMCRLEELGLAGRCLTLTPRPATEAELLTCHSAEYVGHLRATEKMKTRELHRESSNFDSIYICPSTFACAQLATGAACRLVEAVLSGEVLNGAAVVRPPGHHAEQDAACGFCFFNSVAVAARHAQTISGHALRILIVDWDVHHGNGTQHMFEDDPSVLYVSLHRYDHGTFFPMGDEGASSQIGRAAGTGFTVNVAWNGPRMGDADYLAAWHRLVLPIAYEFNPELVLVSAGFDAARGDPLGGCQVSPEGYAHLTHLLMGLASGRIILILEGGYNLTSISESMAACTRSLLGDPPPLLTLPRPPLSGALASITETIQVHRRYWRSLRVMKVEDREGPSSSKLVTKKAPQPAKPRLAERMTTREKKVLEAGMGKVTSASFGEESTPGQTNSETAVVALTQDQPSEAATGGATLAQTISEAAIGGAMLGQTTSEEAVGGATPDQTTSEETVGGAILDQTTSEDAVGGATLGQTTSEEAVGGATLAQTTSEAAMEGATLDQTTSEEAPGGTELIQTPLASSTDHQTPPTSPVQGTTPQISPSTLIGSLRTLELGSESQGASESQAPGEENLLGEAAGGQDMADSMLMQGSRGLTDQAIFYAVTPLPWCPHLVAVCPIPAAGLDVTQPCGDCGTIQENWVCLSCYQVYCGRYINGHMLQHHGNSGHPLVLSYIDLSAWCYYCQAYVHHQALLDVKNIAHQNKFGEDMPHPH
Protocol: To measure the inhibition of HDAC6 activity, purified human HDAC6 (BPS Bioscience; Cat. No. 5006) is incubated with substrate Ac-Arg-Gly-Lys(Ac)-AMC peptide (Bachem Biosciences; Cat. No. I-1925) for 1 hour at 30° C. in the presence of test compounds or vehicle DMSO control. The reaction is stopped with the HDAC inhibitor trichostatin A (Sigma; Cat. No. T8552) and the amount of Arg-Gly-Lys-AMC generated is quantitated by digestion with trypsin (Sigma; Cat. No. T1426) and subsequent measurement of the amount of AMC released using a fluorescent plate reader (Pherastar; BMG Technologies) set at Ex 340 nm and Em 460 nm. Concentration response curves are generated by calculating the fluorescence increase in test compound-treated samples relative to DMSO-treated controls, and enzyme inhibition (IC50) values are determined from those curves.

| Structure (SMILES) | IC50 [nM] |
| --- | --- |
| O=C(NO)c1cc2n(c1)CCN(C(=O)c1ccc(-c3ccccc3)cc1)C2 [Compound I-51, 2-(biphenyl-4-ylcarbonyl)-N-hydroxy-1,2,3,4-tetrahydropyrrolo[1,2-a]pyrazine-7-carboxamide] | < 100 |
| Cc1c(C(=O)N2CCn3cc(C(=O)NO)cc3C2)cnn1-c1ccccc1 [Compound I-99, N-hydroxy-2-[(5-methyl-1-phenyl-1H-pyrazol-4-yl)carbonyl]-1,2,3,4-tetrahydropyrrolo[1,2-a]pyrazine-7-carboxamide] | < 100 |
| Cn1c(C(=O)N2CCn3cc(C(=O)NO)cc3C2)ccc1S(N)(=O)=O [Compound I-47, 2-{[5-(aminosulfonyl)-1-methyl-1H-pyrrol-2-yl]carbonyl}-N-hydroxy-1,2,3,4-tetrahydropyrrolo[1,2-a]pyrazine-7-carboxamide] | < 100 |
| O=C(NO)c1cn2c(n1)CN(C(=O)Nc1ccccc1)CC2 [Compound I-116, N2-hydroxy-N7-phenyl-5,6-dihydroimidazo[1,2-a]pyrazine-2,7(8H)-dicarboxamide] | < 100 |
| Cc1c(C(=O)N2CCn3cc(C(=O)NO)cc3C2)cc(-c2ccccc2)n1-c1ccccc1 [Compound I-87, N-hydroxy-2-[(2-methyl-1,5-diphenyl-1H-pyrrol-3-yl)carbonyl]-1,2,3,4-tetrahydropyrrolo[1,2-a]pyrazine-7-carboxamide] | < 100 |
| O=C(NO)c1cc2n(c1)CCN(Cc1ccc(C(F)(F)F)cc1)C2=O [Compound I-240, N-hydroxy-1-oxo-2-[4-(trifluoromethl)benzyl]-1,2,3,4-tetrahydropyrrolo[1,2-a]pyrazine-7-carboxamide] | < 100 |

same assay, conditions: bins: greater than 1 μM and less than 10 μM; greater than 10 μM

| Structure (SMILES) | IC50 [nM] |
| --- | --- |
| CC1(C(=O)N2CCn3nc(C(=O)NO)cc3C2)CCCCC1 [Compound I-6, N-hydroxy-5-[(1-methylcyclohexyl)carbonyl]-4,5,6,7-tetrahydropyrazolo[1,5-a]pyrazine-2-carboxamide] | 1000 to 10000 |
| CC(C)(C)C(=O)N1CCn2cc(C(=O)NO)nc2C1 [Compound I-41, 7-(2,2-dimethylpropanoyl)-N-hydroxy-5,6,7,8-tetrahydroimidazo[1,2-a]pyrazine-2-carboxamide] | 1000 to 10000 |
| COc1ccc(C(=O)N2CCCn3nc(C(=O)NO)cc3C2)cc1 [Compound I-53, N-hydroxy-5-(4-methoxybenzoyl)-5,6,7,8-tetrahydro-4H-pyrazolo[1,5-a][1,4]diazepine-2-carboxamide] | > 10000 |
| O=C(NO)c1cc2n(c1)CCCN(C(=O)c1ccc(Cl)cc1)C2 [Compound I-56, 2-(4-chlorobenzoyl)-N-hydroxy-2,3,4,5-tetrahydro-1H-pyrrolo[1,2-a][1,4]diazepine-8-carboxamide] | 1000 to 10000 |
| Cn1c(C(=O)N2CCCn3nc(C(=O)NO)cc3C2)cc2ccccc21 [Compound I-105, N-hydroxy-5-[(1-methyl-1H-indol-2-yl)carbonyl]-5,6,7,8-tetrahydro-4H-pyrazolo[1,5-a][1,4]diazepine-2-carboxamide] | 1000 to 10000 |
| O=C(NO)c1cc2n(c1)CCN(C(=O)c1cnn3cccnc13)C2 [Compound I-84, N-hydroxy-2-(pyrazolo[1,5-a]pyrimidin-3-ylcarbonyl)-1,2,3,4-tetrahydropyrrolo[1,2-a]pyrazine-7-carboxamide] | > 10000 |
| CC1(C(=O)N2CCn3cc(C(=O)NO)nc3C2)CCCCC1 [Compound I-26, N-hydroxy-7-(1-methylcyclohexanecarbonyl)-5,6,7,8-tetrahydroimidazo[1,2-a]pyrazine-2-carboxamide] | 1000 to 10000 |
| CC(C)(C)C(=O)N1CCn2nc(C(=O)NO)cc2C1 [Compound I-36, 5-(2,2-dimethylpropanoyl)-N-hydroxy-4,5,6,7-tetrahydropyrazolo[1,5-a]pyrazine-2-carboxamide] | > 10000 |
| Cc1nc(C(=O)N2CCn3cc(C(=O)NO)cc3C2)cs1 [Compound I-73, N-hydroxy-2-[(2-methyl-1,3-thiazol-4-yl)carbonyl]-1,2,3,4-tetrahydropyrrolo[1,2-a]pyrazine-7-carboxamide] | > 10000 |
| Cc1ccc(-c2ccc(C(=O)N3CCCn4cc(C(=O)NO)cc4C3)cc2)cc1 [Compound I-80, N-hydroxy-2-[(4′-methylbiphenyl-4-yl)carbonyl]-2,3,4,5-tetrahydro-1H-pyrrolo[1,2-a][1,4]diazepine-8-carboxamide] | 1000 to 10000 |
